Experimental data from the supplement of paper PMC10307832.

Key:
Assay in all cases: relative viability (nuclei count vs DMSO), 5 days (fraction); higher = more cells survive
BEN = tested on: BEN
Method in brief: (§1)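 Dosing by pin tool came one day after lung cancer cell lines were seeded in 1536-well plates, using either one drug or a fixed anchor-drug dose plus five library-drug doses (not always all listed) in √10 steps. After 5 days, nuclei were counted on 4× images. Relative viability is treated-well nuclei count divided by vehicle-well nuclei count, and values are medians of duplicate plates.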

NCI-H1437 = tested on: NCI-H1437
Method in brief: as §1

COR-L23 = tested on: COR-L23
Method in brief: as §1

HARA = tested on: HARA
Method in brief: as §1

NCI-H2170 = tested on: NCI-H2170
Method in brief: as §1

LK-2 = tested on: LK-2
Method in brief: as §1

PC-14 = tested on: PC-14
Method in brief: as §1

NCI-H3122 = tested on: NCI-H3122
Method in brief: as §1

NCI-H441 = tested on: NCI-H441
Method in brief: as §1

NCI-H1666 = tested on: NCI-H1666
Method in brief: as §1

CAL-12T = tested on: CAL-12T
Method in brief: as §1

NCI-H661 = tested on: NCI-H661
Method in brief: as §1

NCI-H2009 = tested on: NCI-H2009
Method in brief: as §1

EKVX = tested on: EKVX
Method in brief: as §1

NCI-H727 = tested on: NCI-H727
Method in brief: as §1

ABC-1 = tested on: ABC-1
Method in brief: as §1

LU99A = tested on: LU99A
Method in brief: as §1

SW 900 = tested on: SW 900
Method in brief: as §1

201T = tested on: 201T
Method in brief: as §1

NCI-H838 = tested on: NCI-H838
Method in brief: as §1

NCI-H1650 = tested on: NCI-H1650
Method in brief: as §1

COR-L 105 = tested on: COR-L 105
Method in brief: as §1

`CC1(C)CCC(c2ccc(Cl)cc2)=C(CN2CCN(c3ccc(C(=O)NS(=O)(=O)c4ccc(N[C@H](CCN5CCOCC5)CSc5ccccc5)c(S(=O)(=O)C(F)(F)F)c4)cc3)CC2)C1` [Navitoclax] + CCNC(=O)c1noc(-c2cc(C(C)C)c(O)cc2O)c1-c1ccc(CN2CCOCC2)cc1 [Luminespib] (partner 0.01 µM) was tested, and the relative viability (BEN; first compound 0.005 µM) was 0.269, the relative viability (BEN; first compound 0.01581 µM) was 0.271 and the relative viability (BEN; first compound 0.05 µM) was 0.22. The relative viability (BEN; first compound 0.1581 µM) was 0.266, the relative viability (BEN; first compound 0.5 µM) was 0.0778 and the relative viability (NCI-H1437; first compound 0.005 µM) was 1.12. It also gave a relative viability (NCI-H1437; first compound 0.01581 µM) of 1.1, a relative viability (NCI-H1437; first compound 0.05 µM) of 1.09 and a relative viability (NCI-H1437; first compound 0.1581 µM) of 1.14. The relative viability (NCI-H1437; first compound 0.5 µM) was 1.01, the relative viability (COR-L23; first compound 0.005 µM) was 0.605 and the relative viability (COR-L23; first compound 0.01581 µM) was 0.606. The relative viability (COR-L23; first compound 0.05 µM) was 0.738, the relative viability (COR-L23; first compound 0.1581 µM) was 0.595 and the relative viability (COR-L23; first compound 0.5 µM) was 0.666. It also gave a relative viability (HARA; first compound 0.005 µM) of 0.941, a relative viability (HARA; first compound 0.01581 µM) of 0.678 and a relative viability (HARA; first compound 0.1581 µM) of 0.562. The relative viability (HARA; first compound 0.5 µM) was 0.682, the relative viability (NCI-H2170; first compound 0.005 µM) was 0.519 and the relative viability (NCI-H2170; first compound 0.01581 µM) was 0.806. For the same compound, the relative viability (NCI-H2170; first compound 0.05 µM) was 0.552, the relative viability (NCI-H2170; first compound 0.1581 µM) was 0.67 and the relative viability (NCI-H2170; first compound 0.5 µM) was 0.538. It also gave a relative viability (LK-2; first compound 0.005 µM) of 0.204, a relative viability (LK-2; first compound 0.01581 µM) of 0.191 and a relative viability (LK-2; first compound 0.05 µM) of 0.202. For the same compound, the relative viability (LK-2; first compound 0.1581 µM) was 0.191, the relative viability (LK-2; first compound 0.5 µM) was 0.195 and the relative viability (PC-14; first compound 0.005 µM) was 0.223. The relative viability (PC-14; first compound 0.01581 µM) was 0.154, the relative viability (PC-14; first compound 0.05 µM) was 0.23 and the relative viability (PC-14; first compound 0.1581 µM) was 0.313. It also gave a relative viability (PC-14; first compound 0.5 µM) of 0.146, a relative viability (NCI-H3122; first compound 0.005 µM) of 0.09 and a relative viability (NCI-H3122; first compound 0.01581 µM) of 0.0825. It also gave a relative viability (NCI-H3122; first compound 0.05 µM) of 0.11, a relative viability (NCI-H3122; first compound 0.1581 µM) of 0.083 and a relative viability (NCI-H3122; first compound 0.5 µM) of 0.0991. It also gave a relative viability (NCI-H441; first compound 0.005 µM) of 0.294, a relative viability (NCI-H441; first compound 0.01581 µM) of 0.288 and a relative viability (NCI-H441; first compound 0.05 µM) of 0.42. It also gave a relative viability (NCI-H441; first compound 0.1581 µM) of 0.351, a relative viability (NCI-H441; first compound 0.5 µM) of 0.336 and a relative viability (NCI-H1666; first compound 0.005 µM) of 0.881. The relative viability (NCI-H1666; first compound 0.01581 µM) was 0.969, the relative viability (NCI-H1666; first compound 0.05 µM) was 0.989 and the relative viability (NCI-H1666; first compound 0.1581 µM) was 1.05. The relative viability (NCI-H1666; first compound 0.5 µM) was 1.05, the relative viability (CAL-12T; first compound 0.005 µM) was 0.308 and the relative viability (CAL-12T; first compound 0.01581 µM) was 0.563. The relative viability (CAL-12T; first compound 0.05 µM) was 0.708, the relative viability (CAL-12T; first compound 0.1581 µM) was 0.826 and the relative viability (CAL-12T; first compound 0.5 µM) was 0.251. For the same compound, the relative viability (NCI-H661; first compound 0.005 µM) was 0.94, the relative viability (NCI-H661; first compound 0.01581 µM) was 0.853 and the relative viability (NCI-H661; first compound 0.05 µM) was 0.971. For the same compound, the relative viability (NCI-H661; first compound 0.1581 µM) was 0.775, the relative viability (NCI-H661; first compound 0.5 µM) was 0.884 and the relative viability (NCI-H2009; first compound 0.005 µM) was 1.04. It also gave a relative viability (NCI-H2009; first compound 0.01581 µM) of 1.1, a relative viability (NCI-H2009; first compound 0.05 µM) of 1.02 and a relative viability (NCI-H2009; first compound 0.1581 µM) of 1.07. The relative viability (NCI-H2009; first compound 0.5 µM) was 1.04, the relative viability (EKVX; first compound 0.005 µM) was 0.94 and the relative viability (EKVX; first compound 0.01581 µM) was 1.01. It also gave a relative viability (EKVX; first compound 0.05 µM) of 0.663, a relative viability (EKVX; first compound 0.1581 µM) of 0.784 and a relative viability (EKVX; first compound 0.5 µM) of 0.785. For the same compound, the relative viability (NCI-H727; first compound 0.01581 µM) was 0.347, the relative viability (NCI-H727; first compound 0.1581 µM) was 0.275 and the relative viability (NCI-H727; first compound 0.5 µM) was 0.28. It also gave a relative viability (ABC-1; first compound 0.005 µM) of 0.596, a relative viability (ABC-1; first compound 0.01581 µM) of 0.909 and a relative viability (ABC-1; first compound 0.05 µM) of 0.677. It also gave a relative viability (ABC-1; first compound 0.5 µM) of 0.6, a relative viability (LU99A; first compound 0.005 µM) of 0.221 and a relative viability (LU99A; first compound 0.01581 µM) of 0.217. The relative viability (LU99A; first compound 0.05 µM) was 0.154, the relative viability (LU99A; first compound 0.1581 µM) was 0.168 and the relative viability (LU99A; first compound 0.5 µM) was 0.274. For the same compound, the relative viability (SW 900; first compound 0.005 µM) was 0.146, the relative viability (SW 900; first compound 0.01581 µM) was 0.163 and the relative viability (SW 900; first compound 0.05 µM) was 0.177. For the same compound, the relative viability (SW 900; first compound 0.1581 µM) was 0.199, the relative viability (SW 900; first compound 0.5 µM) was 0.132 and the relative viability (201T; first compound 0.005 µM) was 1.05. It also gave a relative viability (201T; first compound 0.01581 µM) of 1.1, a relative viability (201T; first compound 0.05 µM) of 0.982 and a relative viability (201T; first compound 0.1581 µM) of 1.03. The relative viability (201T; first compound 0.5 µM) was 1.08, the relative viability (NCI-H838; first compound 0.005 µM) was 0.344 and the relative viability (NCI-H838; first compound 0.01581 µM) was 0.438. The relative viability (NCI-H838; first compound 0.05 µM) was 0.37, the relative viability (NCI-H838; first compound 0.1581 µM) was 0.17 and the relative viability (NCI-H838; first compound 0.5 µM) was 0.239. The relative viability (NCI-H1650; first compound 0.005 µM) was 0.214, the relative viability (NCI-H1650; first compound 0.01581 µM) was 0.21 and the relative viability (NCI-H1650; first compound 0.05 µM) was 0.167. For the same compound, the relative viability (NCI-H1650; first compound 0.1581 µM) was 0.206, the relative viability (NCI-H1650; first compound 0.5 µM) was 0.192 and the relative viability (COR-L 105; first compound 0.005 µM) was 0.801. The relative viability (COR-L 105; first compound 0.01581 µM) was 1.2, the relative viability (COR-L 105; first compound 0.05 µM) was 0.974 and the relative viability (COR-L 105; first compound 0.1581 µM) was 0.701. The relative viability (COR-L 105; first compound 0.5 µM) was 0.544.
